“And” between values parts separate entries of the source, which are not always exact repeats. Equal values may be shown once. Toxic doses and inconclusive results are not listed. Rule as the data show it: active = T/C of 150% or more; inactive = T/C below 125%.
Tested on: L1210 leukemia ip in BDF1 mice, survival T/C
Test: NCI In Vivo Anticancer Drug Screen. Data for tumor model L1210 Leukemia (intraperitoneal) in B6D2F1 (BDF1) mice
Details: endpoint: mean survival time, higher = longer survival
How it was run: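 Survival endpoint. Drug-treated group vs vehicle group, expressed as T divided by C. Tumor passaged by transplantation.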

[1] = dose: 100.0 mg/kg/injection, schedule: Q01DX001 (ip), vehicle: carboxymethylcellulose (CMC)
[2] = dose: 200.0 mg/kg/injection, schedule: Q01DX001 (ip), vehicle: carboxymethylcellulose (CMC)
[3] = dose: 400.0 mg/kg/injection, schedule: Q01DX001 (ip), vehicle: carboxymethylcellulose (CMC)
[4] = dose: 100.0 mg/kg/injection, schedule: Q01DX009 (ip), vehicle: water
[5] = dose: 200.0 mg/kg/injection, schedule: Q01DX009 (ip), vehicle: water
[6] = dose: 75.0 mg/kg/injection, schedule: Q01DX001 (ip), vehicle: saline
[7] = dose: 150.0 mg/kg/injection, schedule: Q01DX001 (ip), vehicle: saline
[8] = dose: 300.0 mg/kg/injection, schedule: Q01DX001 (ip), vehicle: saline
[9] = dose: 100.0 mg/kg/injection, schedule: Q04DX003 (ip), vehicle: saline
[10] = dose: 200.0 mg/kg/injection, schedule: Q04DX003 (ip), vehicle: saline
[11] = dose: 400.0 mg/kg/injection, schedule: Q04DX003 (ip), vehicle: saline
[12] = dose: 100.0 mg/kg/injection, schedule: Q01DX009 (ip), vehicle: saline
[13] = dose: 200.0 mg/kg/injection, schedule: Q01DX009 (ip), vehicle: saline
[14] = dose: 400.0 mg/kg/injection, schedule: Q01DX009 (ip), vehicle: saline
[15] = dose: 100.0 mg/kg/injection, schedule: Q04DX002 (ip), vehicle: Klucel (hydroxypropylcellulose) (HPC)
[16] = dose: 200.0 mg/kg/injection, schedule: Q04DX002 (ip), vehicle: Klucel (hydroxypropylcellulose) (HPC)
[17] = dose: 400.0 mg/kg/injection, schedule: Q04DX002 (ip), vehicle: Klucel (hydroxypropylcellulose) (HPC)
[18] = dose: 100.0 mg/kg/injection, schedule: Q01DX009 (ip), vehicle: Klucel (hydroxypropylcellulose) (HPC)
[19] = dose: 100.0 mg/kg/injection, schedule: Q04DX003 (ip), vehicle: Klucel (hydroxypropylcellulose) (HPC)
[20] = dose: 200.0 mg/kg/injection, schedule: Q01DX009 (ip), vehicle: Klucel (hydroxypropylcellulose) (HPC)
[21] = dose: 200.0 mg/kg/injection, schedule: Q04DX003 (ip), vehicle: Klucel (hydroxypropylcellulose) (HPC)
[22] = dose: 400.0 mg/kg/injection, schedule: Q01DX009 (ip), vehicle: Klucel (hydroxypropylcellulose) (HPC)
[23] = dose: 400.0 mg/kg/injection, schedule: Q04DX003 (ip), vehicle: Klucel (hydroxypropylcellulose) (HPC)
[24] = dose: 100.0 mg/kg/injection, schedule: Q04DX003 (ip), vehicle: saline with Tween-80
[25] = dose: 200.0 mg/kg/injection, schedule: Q04DX003 (ip), vehicle: saline with Tween-80
[26] = dose: 400.0 mg/kg/injection, schedule: Q04DX003 (ip), vehicle: saline with Tween-80

Measured: T/C

CC(=O)NC(CSC(=N)N)C(=O)O (centres undefined)
inactive: dose: 50.0 mg/kg/injection, schedule: Q01DX001 (ip), vehicle: carboxymethylcellulose (CMC) 107 % of control | [1] 98 % of control | [2] 98 % of control | [3] 102 % of control

O=C1C(=O)c2ccccc2C(O)=C1CC=C1CCCCC1
inactive: dose: 100.0 mg/kg/injection, schedule: Q01DX001 (ip), vehicle: water 100 % of control | [4] 103 % of control | [5] 98 % of control | dose: 400.0 mg/kg/injection, schedule: Q01DX001 (ip), vehicle: water 108 % of control

CCC(COC(=O)c1ccccc1)NC1CCCC1 (centres undefined)
inactive: [6] 102 % of control | [7] 103 % of control | [8] 111 % of control

O=C1c2cc(Br)ccc2-c2cc(Br)c([N+](=O)[O-])c(Br)c21
inactive: [1] 106 % of control | [2] 103 % of control | [3] 97 % of control

Oc1ccc(N=Cc2ccccn2)cc1
inactive: [1] 96 % of control | [2] 105 % of control | [3] 98 % of control

COc1ccc(C2=CC(c3ccc(OC)c(OC)c3)c3c(c4ccccc4oc3=O)O2)cc1OC (centres undefined)
inactive: dose: 25.0 mg/kg/injection, schedule: Q01DX009 (ip), vehicle: water 93 % of control | dose: 50.0 mg/kg/injection, schedule: Q01DX009 (ip), vehicle: water 98 % of control | [4] 93 % of control | [5] 94 % of control | dose: 400.0 mg/kg/injection, schedule: Q01DX009 (ip), vehicle: water 92 % of control

CC(=O)Nc1ccc(P(=O)(O)O)cc1[N+](=O)[O-]
inactive: [9] 91 % of control | [10] 102 % of control | [11] 115 % of control

CCOC(=O)NC(CI)(c1ccccc1)c1ccccc1
inactive: [6] 98 % of control | [7] 97 % of control | [8] 92 % of control

CC1=CC(=O)C=C(C(C)C)/C1=C(\c1ccccc1C(=O)O)c1c(C)cc(OP(=O)(O)O)cc1C(C)C
inactive: [12] 103 % of control | [9] 106 % of control | [13] 102 % of control | [10] 97 % of control | [14] 100 % of control | [11] 98 % of control

Cc1cccc(C2=N/C(=C\c3ccc4c(c3)OC(O)O4)C(=O)O2)c1 (centres undefined)
inactive: [15] 97 % of control | [16] 104 % of control | [17] 104 % of control

COc1cccc(CNc2ccc(SC)cc2)c1OC
inactive: [18] 97 % of control | [19] 94 % of control | [20] 105 % of control | [21] 91 % of control | [22] 94 % of control | [23] 91 % of control

O=C1OC2CCCC1C2 (centres undefined)
inactive: dose: 50.0 mg/kg/injection, schedule: Q01DX001 (ip), vehicle: saline with Tween-80 104 % of control | dose: 100.0 mg/kg/injection, schedule: Q01DX001 (ip), vehicle: saline with Tween-80 100 % of control | dose: 200.0 mg/kg/injection, schedule: Q01DX001 (ip), vehicle: saline with Tween-80 100 % of control

c1ccc2c(c1)C(=Nc1ccc3ccccc3c1)c1ccccc1-2
inactive: [24] 97 % of control | [25] 88 % of control | [26] 92 % of control

C[N-]C.C[N-]C.[Cl][Pt+2][Cl]
inactive: dose: 100.0 mg/kg/injection, schedule: Q01DX001 (ip), vehicle: saline 113 % of control | [12] 100 % of control | dose: 200.0 mg/kg/injection, schedule: Q01DX001 (ip), vehicle: saline 107 % of control | [13] 88 % of control | dose: 400.0 mg/kg/injection, schedule: Q01DX001 (ip), vehicle: saline 119 % of control

S=C1CC2CCCC(C2)N1 (centres undefined)
inactive: dose: 10.0 mg/kg/injection, schedule: Q01DX001 (ip), vehicle: carboxymethylcellulose (CMC) 93 % of control | dose: 20.0 mg/kg/injection, schedule: Q01DX001 (ip), vehicle: carboxymethylcellulose (CMC) 93 % of control | dose: 80.0 mg/kg/injection, schedule: Q01DX001 (ip), vehicle: carboxymethylcellulose (CMC) 100 % of control

O=C(Nc1ccc(Nc2ccccc2)cc1)Nc1cccc2ccccc12
inactive: dose: 100.0 mg/kg/injection, schedule: Q01DX001 (ip), vehicle: Klucel (hydroxypropylcellulose) (HPC) 97 % of control | [18] 100 % of control | [12] 100 % of control | [15] 98 % of control and 105 % of control | [19] 97 % of control | dose: 200.0 mg/kg/injection, schedule: Q01DX001 (ip), vehicle: Klucel (hydroxypropylcellulose) (HPC) 92 % of control | [20] 90 % of control | [13] 100 % of control | [16] 93 % of control and 94 % of control | [21] 92 % of control | dose: 400.0 mg/kg/injection, schedule: Q01DX001 (ip), vehicle: Klucel (hydroxypropylcellulose) (HPC) 95 % of control | [22] 100 % of control | [14] 88 % of control | [17] 98 % of control and 102 % of control

Cc1cccc[c]1[Sb](=[O])([OH])[OH]
inactive: dose: 5.0 mg/kg/injection, schedule: Q01DX001 (ip), vehicle: saline 94 % of control | dose: 10.0 mg/kg/injection, schedule: Q01DX001 (ip), vehicle: saline 97 % of control | dose: 20.0 mg/kg/injection, schedule: Q01DX001 (ip), vehicle: saline 97 % of control | dose: 40.0 mg/kg/injection, schedule: Q01DX001 (ip), vehicle: saline 103 % of control | dose: 80.0 mg/kg/injection, schedule: Q01DX001 (ip), vehicle: saline 105 % of control

N#CC1C2CCC(C2)C1CCCNCCCC1C2CCC(C2)C1C#N (centres undefined)
inactive: dose: 100.0 mg/kg/injection, schedule: Q04DX002 (ip), vehicle: saline 97 % of control | dose: 200.0 mg/kg/injection, schedule: Q04DX002 (ip), vehicle: saline 104 % of control

O=C(NCCCl)Nc1c2ccccc2nc2ccccc12
inactive: [18] 97 % of control | [19] 103 % of control | [20] 89 % of control | [21] 103 % of control | [23] 104 % of control

Nc1ccc(S(=O)(=O)S(=O)(=O)c2ccc(N)cc2)cc1
inactive: [24] 93 % of control | [25] 86 % of control | [26] 91 % of control

Cc1cccc(C)c1N(N=O)C(=O)c1ccccc1
inactive: [6] 98 % of control | [7] 98 % of control

Cc1ccc(NC(=O)Nc2cccc3ccccc23)cc1Cl
inactive: [18] 99 % of control | [19] 91 % of control | [20] 94 % of control | [21] 86 % of control | [22] 97 % of control | [23] 90 % of control

— PubChem BioAssay AID248 (DTP/NCI, 2004)
